This is an account of results in ChEMBL document CHEMBL1137846, “Estrogen receptor ligands. Part 7: Dihydrobenzoxathiin SERAMs with bicyclic amine side chains” (Bioorg Med Chem Lett, 2004).

In assay [1] the target is Estrogen receptor beta (Homo sapiens, UniProt Q92731).
Description: Binding potency for human ER beta
In assay [2] the target is T1, Estrogen receptor (Homo sapiens, UniProt P03372).
T1 sequence (P03372 whole entry): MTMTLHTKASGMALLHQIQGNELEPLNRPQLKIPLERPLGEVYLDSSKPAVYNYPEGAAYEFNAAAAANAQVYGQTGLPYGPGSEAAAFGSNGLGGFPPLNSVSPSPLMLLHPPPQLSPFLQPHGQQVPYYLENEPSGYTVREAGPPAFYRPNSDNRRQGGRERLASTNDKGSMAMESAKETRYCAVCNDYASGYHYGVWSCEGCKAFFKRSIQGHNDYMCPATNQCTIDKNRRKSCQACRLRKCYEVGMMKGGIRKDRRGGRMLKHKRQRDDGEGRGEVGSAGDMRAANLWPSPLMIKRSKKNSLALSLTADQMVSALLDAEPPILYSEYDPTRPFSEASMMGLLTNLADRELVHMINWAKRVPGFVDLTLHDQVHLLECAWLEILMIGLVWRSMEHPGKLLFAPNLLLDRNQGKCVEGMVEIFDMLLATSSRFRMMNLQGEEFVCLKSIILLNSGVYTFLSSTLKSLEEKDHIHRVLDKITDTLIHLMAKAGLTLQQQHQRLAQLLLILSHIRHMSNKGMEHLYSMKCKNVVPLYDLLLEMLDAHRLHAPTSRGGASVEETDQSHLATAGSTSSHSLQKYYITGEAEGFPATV
Description: Binding potency for human ER alpha

The test system of assay [3] is MCF7. The assay can be described thus: cells. The note with it: Homo sapiens.

Chain of Estrogen receptor beta (Q92731 whole entry): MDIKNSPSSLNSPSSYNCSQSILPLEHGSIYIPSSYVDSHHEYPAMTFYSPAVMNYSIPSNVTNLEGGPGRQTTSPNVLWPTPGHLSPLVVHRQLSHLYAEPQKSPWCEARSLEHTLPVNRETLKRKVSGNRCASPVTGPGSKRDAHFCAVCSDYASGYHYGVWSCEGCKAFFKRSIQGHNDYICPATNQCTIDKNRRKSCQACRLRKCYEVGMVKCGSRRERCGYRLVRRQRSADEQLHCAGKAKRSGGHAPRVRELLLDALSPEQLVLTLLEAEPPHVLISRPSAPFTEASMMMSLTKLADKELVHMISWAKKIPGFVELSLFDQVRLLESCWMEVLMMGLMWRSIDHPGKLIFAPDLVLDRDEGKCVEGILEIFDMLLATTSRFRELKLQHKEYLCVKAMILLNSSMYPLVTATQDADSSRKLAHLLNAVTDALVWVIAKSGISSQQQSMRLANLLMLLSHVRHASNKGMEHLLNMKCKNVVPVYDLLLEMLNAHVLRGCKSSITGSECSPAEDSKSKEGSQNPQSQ

By IC50 is commonly meant the point on the concentration scale where inhibition reaches its midpoint. High values mean a need for much substance, low ones inhibition by little substance. With `Oc1ccc([C@H]2Sc3cc(O)ccc3O[C@H]2c2ccc(OCCN3C4CCCC3CCC4)cc2)cc1`, the IC50 in assay [1] is 47 nM; in assay [2], 0.6 nM; in assay [3], 3 nM.
Regarding `Oc1ccc([C@H]2Sc3cc(O)ccc3O[C@H]2c2ccc(OCCN3C4CCCC3CC4)cc2)cc1`, the IC50 in assay [1] was 51 nM; in assay [2], 0.6 nM; in assay [3], 2.2 nM.
Turning to `Oc1ccc([C@H]2Sc3cc(O)ccc3O[C@H]2c2ccc(OCCN3CC4CC5CC(C4)CC3C5)cc2)cc1`, the results for the IC50 in assay [1], in assay [2] and in assay [3] were 40 nM, 0.6 nM and 5.8 nM, respectively.
As to `Oc1ccc([C@H]2Sc3cc(O)ccc3O[C@H]2c2ccc(OCCN3CC[C@H]4C[C@H]43)cc2)cc1`, the IC50 came to 33 nM in assay [1] and 0.4 nM in assay [3].
In the case of `Oc1ccc([C@H]2Sc3cc(O)ccc3O[C@H]2c2ccc(OCCN3CC4CCC4C3)cc2)cc1` (some centres not stated), the IC50 in assay [1] was found to be 85 nM; in assay [2], 0.8 nM; in assay [3], 2.5 nM.
With `Oc1ccc([C@H]2Sc3cc(O)ccc3O[C@H]2c2ccc(OCCN3CCC4(CCCC4)CC3)cc2)cc1`, the IC50 in assay [1] came out at 39 nM; in assay [2] it was 1.2 nM; in assay [3], 29.8 nM.
Consider `Oc1ccc([C@H]2Sc3cc(O)ccc3O[C@H]2c2ccc(OCCN3CC4(CCC4)C3)cc2)cc1`, for which the IC50 was found to be 26 nM in assay [1], 0.4 nM in assay [2] and 0.3 nM in assay [3].
Turning to `Oc1ccc([C@H]2Sc3cc(O)ccc3O[C@H]2c2ccc(OCCN3C[C@H]4CCCC[C@H]4C3)cc2)cc1`, the IC50 in assay [1] worked out at 33 nM; in assay [2] it was 1 nM; in assay [3], 7.7 nM.
For the compound `Oc1ccc([C@H]2Sc3cc(O)ccc3O[C@H]2c2ccc(OCCN3CC4CCC3CC4)cc2)cc1`, the values for the IC50 in assay [1], in assay [2] and in assay [3] were 52 nM, 1.3 nM and 1.6 nM, respectively.
As for `Oc1ccc([C@H]2Sc3cc(O)ccc3O[C@H]2c2ccc(OCCN3C4CCC3CC4)cc2)cc1`, the IC50 in assay [1] amounted to 118 nM; in assay [2], 0.9 nM; in assay [3], 3.6 nM.
For the compound `Oc1ccc([C@H]2Sc3cc(O)ccc3O[C@H]2c2ccc(OCCN3C[C@H]4CCC[C@H]4C3)cc2)cc1`, the IC50 in assay [1] is 18 nM; in assay [2], 0.3 nM; in assay [3], 1.3 nM.
For the compound `Oc1ccc([C@H]2Sc3cc(O)ccc3O[C@H]2c2ccc(OCCN3CC4CC3CO4)cc2)cc1` (some centres not stated), the figures for the IC50 in assay [1], in assay [2] and in assay [3] were 73 nM, 0.7 nM and 3.3 nM, respectively.
In the case of `Oc1ccc([C@H]2Sc3cc(O)ccc3O[C@H]2c2ccc(OCCN3CC[C@@H]4CC43)cc2)cc1` (single isomer, unassigned), the IC50 in assay [1] is 56 nM; in assay [3] it was 0.5 nM.
